Measurements taken from patent US5942248A, “Pharmaceutical composition containing a low detergent effect bile salt and an active compound that undergoes biliary excretion and/or enterohepatic recycling” (priority 1992, dated 1999).
Like-named read-outs stand apart in the source and are kept apart here.

Legend:
[1] = cited from earlier work
[2] = cited from earlier work; remark: listed apart in the source
[3] = pH 7.3 buffer, 37° C.; cited from earlier work
[4] = Stability of indomethacin in stored plasma samples; assay type: physicochemical; details: -20° C.
Procedure: The medication was taken with approx. 250 ml of boiled tap water. The zero time blood samples were taken within a 5 min period preceding the administration of the medication. Subsequent samples were taken at 0.5, 1.0, 1.5, 2.0, 2.5, 3.0, 4.0, 6.0, 8.0, 10.0 and 12.0 h. Blood samples were collected into lithium heparin tubes, gently mixed and centrifuged at 2.0×10^3 g.min within 15min of collection. Separated plasma was transferred into a clean tube and stored at -20° C. After a one week interval, the subjects received the alternative medication and the blood sampling protocol was repeated. Plasma samples were analysed by the HPLC method described by S. K. Cole et al (1992) Int. J. Pharm. 80, 63-73.

[5] = cited from earlier work; remark: listed apart in the source
[6] = test system: isolated perfused rat liver; details: cited from earlier work
[7] = test system: gastrointestinal mucosa; details: in vivo; cited from earlier work
[8] = test system: subjects receiving gallstone dissolution therapy; details: rather than chenodeoxycholate; cited from earlier work
[9] = test system: isolated human hepatocytes; details: cited from earlier work
[10] = test system: heart transplant patients; details: cyclosporine-induced cholestasis; cited from earlier work
[11] = test system: isolated perfused rat liver; details: cited from earlier work; remark: listed apart in the source
[12] = aqueous solution; cited from earlier work
[13] = test system: rats; details: induced by more detergent dihydroxy and trihydroxy bile acids; cited from earlier work
[14] = test system: mono-layer cultures of isolated rat hepatocytes; details: cited from earlier work
[15] = test system: patients; details: chronic active hepatitis, primary biliary cirrhosis, cystic fibrosis; cited from earlier work
[16] = test system: human erythrocytes; details: cited from earlier work

C=CC1=C(C)/C(=C/c2[nH]c(Cc3[nH]c(/C=C4\NC(=O)C(C)=C4C=C)c(C)c3CCC(=O)O)c(CCC(=O)O)c2C)NC1=O [bilirubin]
biliary excretion with exogenously added bile acids ([1]; in vivo): increased the biliary excretion

COc1ccc2c(c1)c(CC(=O)O)c(C)n2C(=O)c1ccc(Cl)cc1 [indomethacin]
absorption rate in vivo with bile acids [2]: did not translate into an enhanced absorption rate in vivo
bioavailability with exogenously added bile acids ([2]; in vivo): increased the bioavailability of indomethacin
inter-subject variation with exogenously added bile acids ([2]; in vivo): decreasing inter-subject variation
dissolution in presence of sodium deoxycholate and sodium cholate [3]: enhance the dissolution
degradation of indomethacin in stored plasma [4]: No degradation of indomethacin was detected
biliary clearance / enterohepatic circulation (in words) ([5]; in vivo): Extensive clearance of intact indomethacin into the bile
plasma clearance ([5]; in vivo): low plasma clearance
plasma half-life ([5]; in vivo): short plasma half-life
route of excretion ([5]; in vivo): mainly excreted via the hepato-biliaryroute
volume distribution ([5]; in vivo): low volume distribution
extent of enterohepatic recycling ([5]; man and animals): 21-41%

CN(C)CCCN1c2ccccc2Sc2ccc(Cl)cc21 [chlorpromiazine]
cholestasis caused [6]: drug-induced cholestasis

CC1(C)S[C@@H]2[C@H](NC(=O)[C@H](N)c3ccccc3)C(=O)N2[C@H]1C(=O)O [ampicillin]
biliary excretion with exogenously added bile acids ([1]; variety of animal species): increased the biliary excretion

O=C1OC(c2ccc(O)c(S(=O)(=O)O)c2)(c2ccc(O)c(S(=O)(=O)O)c2)c2c(Br)c(Br)c(Br)c(Br)c21 [bromosulphthalein]
biliary excretion with exogenously added bile acids ([1]; variety of animal species): increased the biliary excretion

CCCCC1C(=O)N(c2ccccc2)N(c2ccccc2)C1=O [phenylbutazone]
dissolution in presence of sodium deoxycholate and sodium cholate [3]: enhance the dissolution

CC(=O)Oc1ccccc1C(=O)O [aspirin]
gastrointestinal bleeding / lesions [7]: gastrointestinal bleeding

CN1C(C(=O)Nc2ccccn2)=C(O)c2ccccc2S1(=O)=O [piroxicam]
gastrointestinal bleeding / lesions [7]: gastrointestinal bleeding

CCC(Cc1c(I)cc(I)c(N)c1I)C(=O)O (centres unmarked) [iopanoic acid]
biliary excretion with exogenously added bile acids ([1]; in vivo): increased the biliary excretion

CC1(C)C(/C=C/C=C/C=C/C=C2\N(CCCCS(=O)(=O)O)c3ccc4ccccc4c3C2(C)C)=[N+](CCCCS(=O)(=O)[O-])c2ccc3ccccc3c21 [indocyamine green]
biliary excretion with exogenously added bile acids ([1]; variety of animal species): increased the biliary excretion

C[C@]12CC[C@@H]3c4ccc(O)cc4CC[C@H]3[C@@H]1CC[C@@H]2O[C@@H]1O[C@H](C(=O)O)[C@@H](O)[C@H](O)[C@H]1O [estradiol-17-β-D-glucaronide]
cholestasis caused [6]: drug-induced cholestasis

C[C@H](CCC(=O)O)[C@H]1CC[C@H]2[C@@H]3[C@@H](O)C[C@@H]4C[C@H](O)CC[C@]4(C)[C@H]3CC[C@]12C [ursodeoxycholate, Ursodeoxycholate]
gastrointestinal side-effects [8]: decreased incidence of gastrointestinal side-effects
hepatic enzyme levels in plasma [8]: lower hepatic intracellar enzyme levels
detergent effect in isolated human hepatocytes [9]: lack of detergent effect
plasma levels of liver enzymes and bilirubin [10]: reverse the elevated plasma levels of liver enzymes and bilirubin
detergent effect in isolated perfused rat liver [11]: lack of detergent effect
CMC [12]: 1 to 3 mM
biliary excretion of membrane enzymes [13]: reduces the biliary excretion of membrane enzymes
prevention of toxicological effects of more detergent bile acids [14]: prevent the toxicological effects of more detergent bile acids
measures of hepatic damage [15]: reverse measures of hepatic damage
reversal of drug-induced cholestasis ([6]; caused by estradiol-17-β-D-glaucaronide and chlorpromazine): reverse drug-induced cholestasis
prevention of toxicological effects of more detergent bile acids [16]: prevent the toxicological effects of more detergent bile acids
